Results reported in PubChem BioAssay AID248 (DTP/NCI, 2004).
Several values for one entry are separate records, joined by “and”; a condition that tells them apart may be missing. Identical values can stand only once. Inconclusive results and toxic doses are left out. Rule as the data show it: active = T/C of 150% or more; inactive = T/C below 125%.

Test system: L1210 leukemia ip in BDF1 mice, survival T/C
Test: NCI In Vivo Anticancer Drug Screen. Data for tumor model L1210 Leukemia (intraperitoneal) in B6D2F1 (BDF1) mice
Settings: endpoint: mean survival time, higher = longer survival
Method in brief: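 Value reflects the ratio of survival in compound-treated mice to survival in vehicle-treated controls, with both groups carrying the same transplanted tumor.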

[1] = dose: 100.0 mg/kg/injection, schedule: Q01DX009 (ip), vehicle: saline with Tween-80
[2] = dose: 200.0 mg/kg/injection, schedule: Q01DX009 (ip), vehicle: saline with Tween-80
[3] = dose: 100.0 mg/kg/injection, schedule: Q01DX001 (ip), vehicle: saline
[4] = dose: 100.0 mg/kg/injection, schedule: Q04DX003 (ip), vehicle: saline
[5] = dose: 200.0 mg/kg/injection, schedule: Q01DX001 (ip), vehicle: saline
[6] = dose: 200.0 mg/kg/injection, schedule: Q04DX003 (ip), vehicle: saline
[7] = dose: 400.0 mg/kg/injection, schedule: Q04DX003 (ip), vehicle: saline
[8] = dose: 50.0 mg/kg/injection, schedule: Q01DX009 (ip), vehicle: saline
[9] = dose: 100.0 mg/kg/injection, schedule: Q01DX009 (ip), vehicle: saline
[10] = dose: 100.0 mg/kg/injection, schedule: Q01DX001 (ip), vehicle: saline with Tween-80
[11] = dose: 200.0 mg/kg/injection, schedule: Q01DX001 (ip), vehicle: saline with Tween-80
[12] = dose: 400.0 mg/kg/injection, schedule: Q01DX001 (ip), vehicle: saline with Tween-80
[13] = dose: 25.0 mg/kg/injection, schedule: Q04DX003 (ip), vehicle: saline
[14] = dose: 50.0 mg/kg/injection, schedule: Q04DX003 (ip), vehicle: saline
[15] = dose: 50.0 mg/kg/injection, schedule: Q01DX001 (ip), vehicle: saline
[16] = dose: 100.0 mg/kg/injection, schedule: Q04DX002 (ip), vehicle: Klucel (hydroxypropylcellulose) (HPC)
[17] = dose: 200.0 mg/kg/injection, schedule: Q04DX002 (ip), vehicle: Klucel (hydroxypropylcellulose) (HPC)

Measured: T/C

C=C(CCC(C(=O)O)C1CCC2(C)C3=C(CCC12C)C1(C)CCC(O)C(C)(C)C1CC3)C(C)C (stereo not drawn)
inactive: [1] 91 % of control | [2] 87 % of control | dose: 400.0 mg/kg/injection, schedule: Q01DX009 (ip), vehicle: saline with Tween-80 94 % of control

Cc1ccc(OS(=O)(=O)C2CC2c2ccccc2)cc1 (stereo not drawn)
inactive: [3] 92 % of control | [4] 102 % of control | [5] 97 % of control | [6] 98 % of control | dose: 400.0 mg/kg/injection, schedule: Q01DX001 (ip), vehicle: saline 98 % of control | [7] 94 % of control

NC1CCCc2ccccc2C1O (stereo not drawn)
inactive: [3] 102 % of control | [5] 104 % of control

CC[N+](CC)(CC)CCCCCC[N+](CC)(CC)CC
inactive: dose: 3.15 mg/kg/injection, schedule: Q01DX009 (ip), vehicle: water 113 % of control | dose: 6.25 mg/kg/injection, schedule: Q01DX009 (ip), vehicle: water 103 % of control | dose: 6.25 mg/kg/injection, schedule: Q04DX003 (ip), vehicle: saline 103 % of control | dose: 12.5 mg/kg/injection, schedule: Q01DX009 (ip), vehicle: water 100 % of control and 103 % of control | dose: 12.5 mg/kg/injection, schedule: Q04DX003 (ip), vehicle: saline 104 % of control

CN(CCO)C(=O)/C=C/c1ccccc1
inactive: [8] 100 % of control | [9] 94 % of control | dose: 200.0 mg/kg/injection, schedule: Q01DX009 (ip), vehicle: saline 92 % of control

O=C1N(c2ccccc2)C(c2ccccc2)SC1(Cc1ccc(Br)cc1)c1ccccc1 (stereo not drawn)
inactive: [10] 100 % of control | [11] 98 % of control | [12] 94 % of control

CC(N)C(O)c1cccc(O)c1 (stereo not drawn)
inactive: dose: 6.25 mg/kg/injection, schedule: Q01DX009 (ip), vehicle: saline 117 % of control | dose: 12.5 mg/kg/injection, schedule: Q01DX009 (ip), vehicle: saline 100 % of control | dose: 25.0 mg/kg/injection, schedule: Q01DX009 (ip), vehicle: saline 105 % of control | [13] 108 % of control | [8] 100 % of control | [14] 105 % of control | [9] 117 % of control | [4] 97 % of control

CCCCOC(=O)C(C(=O)OCCCC)(C(=O)OCCCC)C(C(=O)OCCCC)(C(=O)OCCCC)C(=O)OCCCC
inactive: [15] 101 % of control | [3] 111 % of control | [5] 104 % of control

S=C=Nc1ccc(Cl)c(Cl)c1
inactive: dose: 12.5 mg/kg/injection, schedule: Q01DX009 (ip), vehicle: saline with Tween-80 104 % of control | dose: 25.0 mg/kg/injection, schedule: Q01DX009 (ip), vehicle: saline with Tween-80 94 % of control | dose: 50.0 mg/kg/injection, schedule: Q01DX009 (ip), vehicle: saline with Tween-80 102 % of control

O=C(O)CC(NC(=O)OCc1ccccc1)c1ccccc1 (stereo not drawn)
inactive: [10] 92 % of control | [1] 93 % of control and 102 % of control | dose: 100.0 mg/kg/injection, schedule: Q04DX002 (ip), vehicle: saline with Tween-80 110 % of control | dose: 100.0 mg/kg/injection, schedule: Q04DX003 (ip), vehicle: saline with Tween-80 97 % of control | [11] 90 % of control | [2] 98 % of control and 91 % of control | dose: 200.0 mg/kg/injection, schedule: Q04DX002 (ip), vehicle: saline with Tween-80 95 % of control | dose: 200.0 mg/kg/injection, schedule: Q04DX003 (ip), vehicle: saline with Tween-80 92 % of control | [12] 92 % of control | dose: 400.0 mg/kg/injection, schedule: Q04DX002 (ip), vehicle: saline with Tween-80 100 % of control | dose: 400.0 mg/kg/injection, schedule: Q04DX003 (ip), vehicle: saline with Tween-80 93 % of control

C=COC(=O)NC(CCSC)C(=O)O (stereo not drawn)
inactive: [15] 101 % of control | [3] 98 % of control

CSC1SCCCS1
inactive: dose: 12.5 mg/kg/injection, schedule: Q04DX002 (ip), vehicle: saline with Tween-80 92 % of control | dose: 25.0 mg/kg/injection, schedule: Q04DX002 (ip), vehicle: saline with Tween-80 98 % of control | dose: 50.0 mg/kg/injection, schedule: Q04DX002 (ip), vehicle: saline with Tween-80 88 % of control

COc1ccc(P(=S)(S)c2ccc(OC)cc2)cc1
inactive: dose: 100.0 mg/kg/injection, schedule: Q04DX003 (ip), vehicle: acetone 94 % of control | dose: 200.0 mg/kg/injection, schedule: Q04DX003 (ip), vehicle: acetone 100 % of control | dose: 400.0 mg/kg/injection, schedule: Q04DX003 (ip), vehicle: acetone 90 % of control

ClCCN(CC1C(c2ccccc2)C1c1ccccc1)C1CCCCC1 (stereo not drawn)
inactive: dose: 1.5 mg/kg/injection, schedule: Q04DX002 (ip), vehicle: Klucel (hydroxypropylcellulose) (HPC) 104 % of control | dose: 3.1 mg/kg/injection, schedule: Q04DX002 (ip), vehicle: Klucel (hydroxypropylcellulose) (HPC) 92 % of control | dose: 6.25 mg/kg/injection, schedule: Q04DX002 (ip), vehicle: Klucel (hydroxypropylcellulose) (HPC) 92 % of control

CCOC(=O)/C=C/c1c(OC)cc(OC)cc1OC
inactive: dose: 100.0 mg/kg/injection, schedule: Q01DX009 (ip), vehicle: other 97 % of control | [4] 101 % of control | dose: 200.0 mg/kg/injection, schedule: Q01DX009 (ip), vehicle: other 106 % of control | [6] 101 % of control | dose: 400.0 mg/kg/injection, schedule: Q01DX009 (ip), vehicle: other 94 % of control | [7] 93 % of control

CSc1ccnc2c1cnn2C1OC(CO)C(O)C1O (stereo not drawn)
inactive: dose: 50.0 mg/kg/injection, schedule: Q01DX005 (ip), vehicle: other 109 % of control | dose: 100.0 mg/kg/injection, schedule: Q01DX005 (ip), vehicle: other 102 % of control | dose: 200.0 mg/kg/injection, schedule: Q01DX005 (ip), vehicle: other 98 % of control

Cc1cc2cc3cccnn3c2nn1
inactive: dose: 25.0 mg/kg/injection, schedule: Q04DX002 (ip), vehicle: saline 106 % of control | dose: 50.0 mg/kg/injection, schedule: Q04DX002 (ip), vehicle: saline 98 % of control | [16] 118 % of control | dose: 100.0 mg/kg/injection, schedule: Q04DX002 (ip), vehicle: saline 106 % of control

ClCc1c(Cl)cccc1Cl
inactive: [16] 97 % of control | [17] 97 % of control | dose: 400.0 mg/kg/injection, schedule: Q04DX002 (ip), vehicle: Klucel (hydroxypropylcellulose) (HPC) 97 % of control

C=C(C)C1C2OC2C(=O)C2=CCCC(C)C21C (stereo not drawn)
inactive: [13] 97 % of control | [14] 100 % of control | [4] 100 % of control

CC/C(=N/Nc1ccc([N+](=O)[O-])cc1[N+](=O)[O-])c1ccccc1
inactive: dose: 100.0 mg/kg/injection, schedule: Q01DX001 (ip), vehicle: other 96 % of control | dose: 200.0 mg/kg/injection, schedule: Q01DX001 (ip), vehicle: other 111 % of control | dose: 400.0 mg/kg/injection, schedule: Q01DX001 (ip), vehicle: other 91 % of control

CC(C)C1(O)C=CC(C)(O)CC1 (stereo not drawn)
inactive: [4] 102 % of control | [6] 102 % of control | [7] 107 % of control

COc1cc2cc3c4cc(OC)c(OC)cc4cc[n+]3c(CCC(=O)O)c2cc1OC (tested in a mixture with another compound)
inactive: dose: 50.0 mg/kg/injection, schedule: Q04DX002 (ip), vehicle: Klucel (hydroxypropylcellulose) (HPC) 103 % of control | [16] 98 % of control | [17] 103 % of control

ClCc1ccc(CCl)cc1
inactive: dose: 56.25 mg/kg/injection, schedule: Q01DX009 (ip), vehicle: Klucel (hydroxypropylcellulose) (HPC) 101 % of control | dose: 112.5 mg/kg/injection, schedule: Q01DX009 (ip), vehicle: Klucel (hydroxypropylcellulose) (HPC) 98 % of control | dose: 150.0 mg/kg/injection, schedule: Q04DX003 (ip), vehicle: Klucel (hydroxypropylcellulose) (HPC) 105 % of control | dose: 225.0 mg/kg/injection, schedule: Q01DX009 (ip), vehicle: Klucel (hydroxypropylcellulose) (HPC) 87 % of control | dose: 225.0 mg/kg/injection, schedule: Q04DX003 (ip), vehicle: Klucel (hydroxypropylcellulose) (HPC) 97 % of control

CCOP(=S)(NN=C1CCCCC1)OCC
inactive: [3] 104 % of control | [5] 101 % of control
